Values after ≈ are worked out from the molar mass of the structure shown.
Assays:
Format in all cases: cell-based
[1] = test system: Pseudomonas aeruginosa UC-12120; test: minimum inhibitory concentration (MIC) testing according to CLSI guidelines, Pseudomonas aeruginosa; details: UC-12120, wild-type, labeled as 1091-05, overnight incubation, lower of duplicate values; for MIC: Pseudomonas aeruginosa, UC12120, read-out: AB-MBT: Pseudomonas aeruginosa 1091-05: MIC (MstRcn)
Protocol: (§1) In order to assess the compounds biological activity, the in vitro anti-bacterial activity of selected compounds described in the Examples 1-69 was evaluated by minimum inhibitory concentration (MIC) testing according to Clinical and Laboratory Standards Institute (CLSI, formerly NCCLS) guidelines. See: Clinical and Laboratory Standards Institute. Methods for Dilution Antimicrobial Susceptibility Tests for Bacteria that Grow Aerobically; Approved Standard-Eighth Edition. CLSI document M7-A8 [ISBN 1-56238-689-1]. Clinical and Laboratory Standards Institute, 940 West Valley Road, Suite 1400, Wayne, Pa. 19087-1898 USA, 2006; also Clinical and Laboratory Standards Institute. Performance Standards for Antimicrobial Susceptibility Testing; Twentieth Informational Supplement. CLSI document M100-S20 [ISBN1-56238-716-2]. Clinical and Laboratory Standards Institute.
(§2) The MIC determination is a standard laboratory method for evaluating the antibacterial activity of a compound. The MIC represents the lowest drug concentration that inhibits visible growth of bacteria following overnight incubation. […] Typically, the drug concentration range is broken down into 2-fold increments (e.g. 0.06 μg/mL, 0.12 μg/mL. 0.25 μg/mL, 0.50 μg/mL, 1.0 μg/mL, etc.) and the various drug concentrations are all individually incubated overnight with approximately the same number of bacteria. The MIC is then determined by visually inspecting the drug effect at each concentration, and identifying the lowest drug concentration that has inhibited bacterial growth as compared to the drug free control. Typically, bacteria continue to grow at drug concentrations lower than the MIC and don't grow at concentrations at and above the MIC.
(§3) The MIC values described in Table 1 below were derived from assays wherein each test compound was evaluated in duplicate. In cases where the duplicate values varied by 0-2-fold, the lower of the two values was reported below. Generally speaking, if the duplicate values varied by more than 2-fold, the assay was considered non-valid and was repeated until the variation between duplicate runs was ≦2-fold. In line with the CLSI guidelines referred to above, both control organisms and reference compounds were utilized in each MIC assay to provide proper quality control. MIC values generated with these control organisms and reference compounds were required to fall within a defined range for the assay to be considered valid and be included herein. Those skilled in the art will recognize that MIC values can and do vary from experiment to experiment. Generally speaking, it should be recognized that MIC values often vary +/−2-fold from experiment to experiment. While a single MIC is reported for each compound and each microorganism, the reader should not conclude that each compound was only tested once. Several of the compounds were subjected to multiple tests. The data reported in Table 1 is reflective of the compounds relative activity and different MICs may have been generated on these occasions in light with the guidelines described above.
(§4) The following bacterial strains were used in these MIC determinations:
1) Pseudomonas aeruginosa UC-12120: Wild-type, labeled as 1091-05;

[2] = test system: Acinetobacter baumannii/haemolyticus AB-3167; test: minimum inhibitory concentration (MIC) testing according to CLSI guidelines, Acinetobacter; details: multidrug-resistant clinical isolate AB-3167, overnight incubation, lower of duplicate values; for MIC: Acinetobacter baumannii, read-out: AB-MBT: Acinetobacter baumanii AB-3167: MIC (MstRcnt)
Protocol: as §1, §2, §3, §4
3) Acinetobacter baumannii/haemolyticus: Multidrug-resistant clinical isolate, labeled as AB-3167.

[3] = test system: Klebsiella pneumoniae 1000-02; test: minimum inhibitory concentration (MIC) testing according to CLSI guidelines, Klebsiella pneumoniae; details: ciprofloxacin-resistant, ESBL-expressing clinical isolate 1000-02, overnight incubation, lower of duplicate values; for MIC: Klebsiella pneumoniae, read-out: AB-MBT: Klebsiella pneumoniae 1000-02: MIC (MstRcnt)
Protocol: as §1, §2, §3, §4
2) Klebsiella pneumoniae: Ciprofloxacin-resistant isolate, expresses extended-spectrum beta-lactamases (ESBL), clinical isolate, labeled as 1000-02;

Row | SMILES | MIC [1] [µg/mL] | MIC [3] [µg/mL] | AB-MBT: Pseudomonas aeruginosa 1091-05: MIC (MstRcn) [1] [µg/mL] | AB-MBT: Klebsiella pneumoniae 1000-02: MIC (MstRcnt) [3] [µg/mL] | MIC [2] [µg/mL] | AB-MBT: Acinetobacter baumanii AB-3167: MIC (MstRcnt) [2] [µg/mL]
1 | CC(C)(O/N=C(\C(=O)N[C@@H]1C(=O)N(S(=O)(=O)O)[C@@H]1COC(=O)c1cc(-c2cc(=O)c(O)cn2O)no1)c1csc(N)n1)C(=O)O [Example 13, 2-({[(1Z)-1-(2-amino-1,3-thiazol-4-yl)-2-({(2S,3S)-2-[({[3-(1,5-dihydroxy-4-oxo-1,4-dihydropyridin-2-yl)isoxazol-5-yl]carbonyl}oxy)methyl]-4-oxo-1-sulfoazetidin-3-yl}amino)-2-oxoethylidene]amino}oxy)-2-methylpropanoic acid] | 0.25 (≈ 0.372 µM) | 0.125 (≈ 0.186 µM) | – | – | 0.5 (≈ 0.745 µM) | –
2 | CC(C)(O/N=C(\C(=O)N[C@@H]1C(=O)N(S(=O)(=O)O)[C@@H]1CNC(=O)c1cc(-c2cc(=O)c(O)c[nH]2)no1)c1csc(N)n1)C(=O)O [Example 14, 2-({[(1Z)-1-(2-amino-1,3-thiazol-4-yl)-2-({(2R,3S)-2-[({[3-(5-hydroxy-4-oxo-1,4-dihydropyridin-2-yl)isoxazol-5-yl]carbonyl}amino)methyl]-4-oxo-1-sulfoazetidin-3-yl}amino)-2-oxoethylidene]amino}oxy)-2-methylpropanoic acid] | 1 (≈ 1.53 µM) | 0.5 (≈ 0.764 µM) | – | – | 0.5 (≈ 0.764 µM) | –
3 | CC(C)(O/N=C(\C(=O)N[C@@H]1C(=O)N(S(=O)(=O)[O-])[C@@H]1CNC(=O)c1cc(-c2cc(=O)c(O)cn2O)no1)c1csc(N)n1)C(=O)[O-].[Na+].[Na+] [Example 15, 2-({[(1Z)-1-(2-amino-1,3-thiazol-4-yl)-2-({(2R,3S)-2-[({[3-(1,5-dihydroxy-4-oxo-1,4-dihydropyridin-2-yl)isoxazol-5-yl]carbonyl}amino)methyl]-4-oxo-1-sulfoazetidin-3-yl}amino)-2-oxoethylidene]amino}oxy)-2-methylpropanoic acid, bis sodium salt] | – | – | 0.250 | 1.00 | – | 0.250
4 | CC(C)(O/N=C(\C(=O)N[C@@H]1C(=O)N(S(=O)(=O)O)[C@@H]1CNC(=O)c1cc(-c2cc(=O)c(O)cn2O)on1)c1csc(N)n1)C(=O)O [Example 16, 2-({[(1Z)-1-(2-amino-1,3-thiazol-4-yl)-2-({(2R,3S)-2-[({[5-(1,5-dihydroxy-4-oxo-1,4-dihydropyridin-2-yl)isoxazol-3-yl]carbonyl}amino)methyl]-4-oxo-1-sulfoazetidin-3-yl}amino)-2-oxoethylidene]amino}oxy)-2-methylpropanoic acid] | 0.25 (≈ 0.373 µM) | 0.5 (≈ 0.746 µM) | – | – | 1 (≈ 1.49 µM) | –
5 | CC(C)(O/N=C(\C(=O)N[C@@H]1C(=O)N(S(=O)(=O)[O-])[C@@H]1CNC(=O)c1coc(-c2cc(=O)c(O)cn2O)n1)c1csc(N)n1)C(=O)[O-].[Na+].[Na+] [Example 17, 2-({[(1Z)-1-(2-amino-1,3-thiazol-4-yl)-2-({(2R,3S)-2-[({[2-(1,5-dihydroxy-4-oxo-1,4-dihydropyridin-2-yl)-1,3-oxazol-4-yl]carbonyl}amino)methyl]-4-oxo-1-sulfoazetidin-3-yl}amino)-2-oxoethylidene]amino}oxy)-2-methylpropanoic acid, bis sodium salt] | – | – | 0.125 | 1.00 | – | 1.00

Second part, led by results:

Row | MIC [1] [µg/mL] | MIC [3] [µg/mL] | AB-MBT: Pseudomonas aeruginosa 1091-05: MIC (MstRcn) [1] [µg/mL] | AB-MBT: Klebsiella pneumoniae 1000-02: MIC (MstRcnt) [3] [µg/mL] | SMILES | MIC [2] [µg/mL] | AB-MBT: Acinetobacter baumanii AB-3167: MIC (MstRcnt) [2] [µg/mL]
6 | – | – | 0.250 | 0.500 | CC(C)(O/N=C(\C(=O)N[C@@H]1C(=O)N(S(=O)(=O)[O-])[C@@H]1CNC(=O)c1coc(-c2cc(=O)c(O)c[nH]2)n1)c1csc(N)n1)C(=O)[O-].[Na+].[Na+] [Example 18, 2-({[(1Z)-1-(2-amino-1,3-thiazol-4-yl)-2-({(2R,3S)-2-[({[2-(5-hydroxy-4-oxo-1,4-dihydropyridin-2-yl)-1,3-oxazol-4-yl]carbonyl}amino)methyl]-4-oxo-1-sulfoazetidin-3-yl}amino)-2-oxoethylidene]amino}oxy)-2-methylpropanoic acid, bis sodium salt] | – | 1.00
7 | 0.5 (≈ 0.744 µM) | 1 (≈ 1.49 µM) | – | – | CC(C)(O/N=C(\C(=O)N[C@@H]1C(=O)N(S(=O)(=O)O)[C@@H]1COC(=O)c1csc(-c2cc(=O)c(O)c[nH]2)n1)c1csc(N)n1)C(=O)O [Example 19, 2-({[(1Z)-1-(2-amino-1,3-thiazol-4-yl)-2-({(2S,3S)-2-[({[2-(5-hydroxy-4-oxo-1,4-dihydropyridin-2-yl)-1,3-thiazol-4-yl]carbonyl}oxy)methyl]-4-oxo-1-sulfoazetidin-3-yl}amino)-2-oxoethylidene]amino}oxy)-2-methylpropanoic acid] | 1 (≈ 1.49 µM) | –
8 | 1 (≈ 1.49 µM) | 0.5 (≈ 0.746 µM) | – | – | CC(C)(O/N=C(\C(=O)N[C@@H]1C(=O)N(S(=O)(=O)O)[C@@H]1CNC(=O)c1csc(-c2cc(=O)c(O)c[nH]2)n1)c1csc(N)n1)C(=O)O [Example 20, 2-({[(1Z)-1-(2-amino-1,3-thiazol-4-yl)-2-({(2R,3S)-2-[({[2-(5-hydroxy-4-oxo-1,4-dihydropyridin-2-yl)-1,3-thiazol-4-yl]carbonyl}amino)methyl]-4-oxo-1-sulfoazetidin-3-yl}amino)-2-oxoethylidene]amino}oxy)-2-methylpropanoic acid] | 1 (≈ 1.49 µM) | –
9 | 8 (≈ 12 µM) | 64 (≈ 96 µM) | – | – | CC(C)(O/N=C(\C(=O)N[C@@H]1C(=O)N(S(=O)(=O)O)[C@@H]1COC(=O)c1ccnc(-c2cc(=O)c(O)c[nH]2)n1)c1csc(N)n1)C(=O)O [Example 21, 2-({[(1Z)-1-(2-amino-1,3-thiazol-4-yl)-2-({(2S,3S)-2-[({[2-(5-hydroxy-4-oxo-1,4-dihydropyridin-2-yl)pyrimidin-4-yl]carbonyl}oxy)methyl]-4-oxo-1-sulfoazetidin-3-yl}amino)-2-oxoethylidene]amino}oxy)-2-methylpropanoic acid] | > 64 | –
10 | 4 (≈ 6.01 µM) | 32 (≈ 48.1 µM) | – | – | CC(C)(O/N=C(\C(=O)N[C@@H]1C(=O)N(S(=O)(=O)O)[C@@H]1CNC(=O)c1ccnc(-c2cc(=O)c(O)c[nH]2)n1)c1csc(N)n1)C(=O)O [Example 22, 2-({[(1Z)-1-(2-amino-1,3-thiazol-4-yl)-2-({(2R,3S)-2-[({[2-(5-hydroxy-4-oxo-1,4-dihydropyridin-2-yl)pyrimidin-4-yl]carbonyl}amino)methyl]-4-oxo-1-sulfoazetidin-3-yl}amino)-2-oxoethylidene]amino}oxy)-2-methylpropanoic acid] | 16 (≈ 24 µM) | –
11 | 1 (≈ 1.47 µM) | 0.25 (≈ 0.367 µM) | – | – | CC(C)(O/N=C(\C(=O)N[C@@H]1C(=O)N(S(=O)(=O)O)[C@@H]1CNC(=O)c1ccnc(-c2cc(=O)c(O)cn2O)n1)c1csc(N)n1)C(=O)O [Example 23, 2-({[(1Z)-1-(2-amino-1,3-thiazol-4-yl)-2-({(2R,3S)-2-[({[2-(1,5-dihydroxy-4-oxo-1,4-dihydropyridin-2-yl)pyrimidin-4-yl]carbonyl}amino)methyl]-4-oxo-1-sulfoazetidin-3-yl}amino)-2-oxoethylidene]amino}oxy)-2-methylpropanoic acid] | 0.25 (≈ 0.367 µM) | –
